Patent US9556217B2, “Amphiphilic compounds” (WISCONSIN ALUMNI RESEARCH FOUNDATION, priority 2012, dated 2017)
Read-outs that look alike come from different tables or passages of the source.

Key:
[1] = Critical micelle concentration (fluorescent dye solubilization); type: physicochemical
Description: The “Critical Micelle Concentration” (CMC) refers to the concentration of a detergent (e.g., an amphiphile as described herein) in an aqueous solution at which the detergent molecules self-assemble into micelles. Below the CMC, detergents are mostly monomeric; above the CMC, micelle concentration increases linearly with detergent concentration. The CMC is dependent upon many factors and is detergent-specific. The CMC of a detergent can be determined experimentally by measuring the solubilization of a water-insoluble dye or fluorophore while varying the concentration of detergent. A CMC may also be determined by measuring the diminution of the surface tension of an aqueous solution as a function of detergent concentration (CMCs determined by either method correlate with each other). The CMC is determined by extrapolating the plot of solubilization vs. concentration (or surface tension vs. concentration) in the two linear regions above and below the CMC. Where the two lines intersect is the CMC. The CMC can also be determined by the method of Nugebauer, J. M. (1990), Methods in Enzymology, 182:239-253.
The four compounds were readily prepared on a multi-gram scale (see Examples 1 and 2 below, and FIGS. 13-15), as is necessary if they are to serve as research tools. All four are highly soluble in aqueous solution (>20 wt %) and have relatively low critical micelle concentrations (CMC; determined by fluorescent dye solubilization).

[2] = Hydrodynamic radius of micelles by dynamic light scattering; type: physicochemical; details: Mean ± SD, n = 5
Description: These values are somewhat smaller than the CMC of DDM, which indicates a strong tendency of the new agents to self-assemble, and which can be advantageous for IMP handling because detrimental levels of non-micellar amphiphile can be avoided. Table 1 provides the hydrodynamic radius (Rh) of the micelles formed by each amphiphile, as determined by dynamic light scattering (DLS). The micelles formed by GLC amphiphiles are slightly smaller than those formed by DDM, while the micelles formed by GDN are slightly larger.

wild type β2AR (β2AR WT) = molecular target: T1, wild type β2AR (β2AR WT) (Homo sapiens, UniProt P07550); assay: β2AR WT activity after extraction ([3H]-dihydroalprenolol binding); type: biochemical
T1 construct: made in house; host or cells: Sf9 insect cells (baculovirus); lysed cells and membranes extracted directly with amphiphile
T1 sequence (P07550 whole entry): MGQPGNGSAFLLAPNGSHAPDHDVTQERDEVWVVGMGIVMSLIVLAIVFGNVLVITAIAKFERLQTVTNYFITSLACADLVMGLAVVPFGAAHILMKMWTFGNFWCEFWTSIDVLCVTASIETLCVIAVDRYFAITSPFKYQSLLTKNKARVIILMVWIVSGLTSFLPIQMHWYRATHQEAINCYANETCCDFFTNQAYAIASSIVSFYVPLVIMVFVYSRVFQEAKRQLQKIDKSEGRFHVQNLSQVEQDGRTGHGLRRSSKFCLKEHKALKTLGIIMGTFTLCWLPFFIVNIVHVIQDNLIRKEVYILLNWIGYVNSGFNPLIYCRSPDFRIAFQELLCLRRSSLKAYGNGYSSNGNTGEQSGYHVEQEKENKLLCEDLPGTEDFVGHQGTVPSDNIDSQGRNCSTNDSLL
Procedure: In the examples discussed above, conventional detergents such as DDM were used to extract IMPs from the membrane, and then in most cases the solution of detergent-solubilized protein was diluted with amphiphile-containing solutions to evaluate the new agents. With this approach it is possible that the small amount of residual conventional detergent could affect protein stability. To exclude this possibility, GLC-3 and GDN were used to extract wild type β2AR (β2AR WT) (Kobilka, Trends in Pharmacological Sciences 2011, 32, 213-218) from the membrane. Receptor activity was measured via a binding assay involving the antagonist [^3H]-dihydroalprenolol. […] GDN is therefore highly suitable for GPCR extraction.
(§1) A gene encoding amino-terminally FLAG epitope tagged β2AR was expressed in Sf9 cells by baculovirus, with no ligand present during culture. Cells were infected at a density of 4×10^6 cells/mL and then cultured for 48 hours prior to harvesting by centrifugation. Cells were resuspended and lysed by osmotic shock with a low ionic strength buffer (20 mM Tris pH 7.5, 1 mM EDTA). The lysed cells were aliquoted 35 mg per aliquot, then frozen. For extraction tests, 300 μL of solubilization buffer (20 mM HEPES pH 7.5, 100 mM NaCl) containing each amphiphile was added to each aliquot, which was then homogenized by pipet followed by grinding with a glass dounce tissue homogenizer. After two-hour incubation at 4° C., samples were centrifuged at maximum speed in a tabletop microcentrifuge to pellet insoluble material. Supernatant was removed and assayed for protein concentration by DC protein assay (Bio-Rad).
The amount of functional receptor was quantified by incubation for 1 hour with 10 nM 3H dihydroalprenolol. Samples were then separated by gel filtration over G-50 resin and radioactivity was quantified by liquid scintillation. Nonspecific binding was measured in the presence of 10 μM alprenolol. Assays were performed in triplicate at time points indicated. G-50 filtration was performed in buffer containing 20 mM HEPES pH 7.5, 100 mM NaCl, 10-fold CMC of the detergent tested. All binding assays were performed with ice cold buffers.

[3] = system: δ-opioid receptor-T4L fusion (δOR-T4L); assay: δOR-T4L activity after solubilization ([3H]-diprenorphine binding); type: biochemical; details: extracted with 1.0 wt % of amphiphile
Description: We turned to a δ-opioid receptor-T4L fusion (δOR-T4L), another GPCR, to compare GDN with the recently reported amphiphile MNG-3 (P. S. Chae, et al., Nat. Methods 2010, 7, 1003-1008), which has proven to be essential for crystallization of several other GPCR constructs (Rasmussen, et al., Nature 2011, 469, 236-240; Rosenbaum, et al., Nature 2011, 469, 175-180; Rasmussen, et al., Nature 2011, 477, 540-541; Kruse, et al., Nature 2012, 482, 552-556; Haga, et al., Nature 2012, 482, 547-551). […] The ability of the new amphiphiles to stabilize membrane proteins thus allows for the ability to perform analyses and structural studies that could not be performed with other detergents such as DDM because harsher detergents (e.g., DDM) can remove important lipid moieties from the proteins, causing them to denature and rapidly loose activity.
FLAG epitope tagged δOR-T4L was expressed in Sf9 insect cells using baculovirus particles generated by the pFastBac vector system (Invitrogen). Insect cells were infected and cultured as for the β2AR and cells were lysed by osmotic shock as done for cells expressing β2AR. Lysed cells were used for extraction tests by adding 40 mg of cells to 200 μL of solubilization buffer (20 mM HEPES pH 7.5, 100 mM NaCl) containing each amphiphile. […] The amount of functional receptor after solubilization was quantified by incubation for 1 hour with 10 nM 3H diprenorphine. […]

β2AR WT = molecular target: T2, β2AR WT (Homo sapiens, UniProt P07550); assay: Extraction of β2AR WT from insect cell membranes; details: 1 wt %; western blotting
T2 construct: made in house; host or cells: Sf9 insect cells (baculovirus); lysed cells and membranes extracted directly with amphiphile
T2 sequence (P07550 whole entry): as above
Procedure: (§2) The favorable MelB extraction performance of GDN led to the examination of this amphiphile for extraction of other IMPs. […] DDM and GDN were used to extract a CMP-Sia fusion protein bearing green fluorescent protein (GFP) at the C-terminus, after expression in Saccharomyces cerevisiae; the amount of solubilized protein was estimated by total fluorescence. GDN (2 wt %), DDM (1 wt %) and OG (1 wt %) gave ˜70%, ˜80% and ˜50% extraction yields, respectively.
(§3) The procedure was performed according to the protocol reported by Chae and coworkers (Nat. Methods 2010, 7, 1003-1008).
as §1, with “Supernatant was removed and assayed for protein concentration by DC protein assay (Bio-Rad).” left out

[4] = molecular target: T3, CMP-Sia fusion protein bearing green fluorescent protein (GFP) (Mus musculus, UniProt Q61420); assay: CMP-Sia-GFP fusion solubilization (fluorescence); details: 1 wt %, 1 hr at 4° C., total fluorescence
T3 construct: made in house; host or cells: Saccharomyces cerevisiae FGY217
Procedure: as §2, §3
CMP-Sia was expressed as a fusion protein with a C-terminal GFP in FGY217 Saccharomyces cerevisiae cells. Cell lysis was conducted by using a cell disrupter (Constant Systems) and the protein samples were subjected to centrifugation at 15,000 g for 10 mins to remove unbroken cells and debris. Subsequently, the membranes were harvested by ultracentrifugation at 150,000 g for 45 min. The membranes were resuspended in 50 mM Tris-HCl (pH 7.6), 1 mM EDTA, 0.6 M sorbitol and the protein concentration was estimated using a BCA kit (Pierce). The membranes were incubated with OG or DDM at 1.0%, or GDN at 2.0% for 1 hr at 4° C. A fluorescence value was measured for each sample before and after ultracentrifugation at 150,000 g for 1 h. The solubilization efficiency was calculated via the fluorescence measurements of the soluble supernatant/the total sample.

[5] = stated in the bR protocol; cited from earlier work

CO[C@@H]1CC[C@@]2(C)[C@H](CC[C@@H]3[C@@H]2CC[C@]2(C)[C@@H]([C@H](C)CCC(=O)NC(CO[C@@H]4OC(CO)C(O[C@@H]5OC(CO)[C@@H](O)[C@H](O)C5O)[C@@H](O)C4O)CO[C@@H]4OC(CO)[C@@H](O[C@H]5OC(CO)[C@@H](O)[C@H](O)C5O)[C@H](O)C4O)CC[C@@H]32)C1 (stereo partly drawn) [GLC-1]
CMC [1]: ~52 µM
CMC (wt %) [1]: ~0.006 wt %
Rh (nm), hydrodynamic radius of micelles [2]: 3.22 ± 0.03 nm

CO[C@@H]1CC[C@@]2(C)[C@H](CC[C@@H]3[C@@H]2CC[C@]2(C)C(C(C)CCCC(CO[C@@H]4OC(CO)C(O[C@@H]5OC(CO)[C@@H](O)[C@H](O)C5O)[C@@H](O)C4O)CO[C@@H]4OC(CO)[C@@H](O[C@H]5OC(CO)[C@@H](O)[C@H](O)C5O)[C@H](O)C4O)CC[C@@H]32)C1 (stereo partly drawn) [GLC-3]
CMC [1]: ~7.1 µM
CMC (wt %) [1]: ~0.00077 wt %
Rh (nm), hydrodynamic radius of micelles [2]: 3.27 ± 0.08 nm
β2AR WT initial activity (wild type β2AR (β2AR WT); extracted with 1 wt % or 2 wt % amphiphile, [3H]-dihydroalprenolol binding): initial activity similar to that of DDM
β2AR WT activity over 72 hours (wild type β2AR (β2AR WT); solubilized samples stored at 4° C.): activity was maintained over 72 hours

CCCCCCCCCCC(CCCCCCCCCC)(CO[C@@H]1O[C@H](CO)[C@@H](O[C@H]2O[C@H](CO)[C@@H](O)[C@H](O)[C@H]2O)[C@H](O)[C@H]1O)CO[C@@H]1O[C@H](CO)[C@@H](O[C@H]2O[C@H](CO)[C@@H](O)[C@H](O)[C@H]2O)[C@H](O)[C@H]1O [MNG-3, reference compound]
δOR-T4L ligand binding activity after solubilization [3]: higher activity than DDM-solubilized δOR-T4L

CCCCCCCCO[C@@H]1O[C@H](CO)[C@@H](O)[C@H](O)[C@H]1O [OG, octyl-β-D-glucoside, reference compound]
β2AR WT detected after extraction (β2AR WT): only a very small amount of β2AR WT was detected
CMP-Sia-GFP extraction yield [4]: ~50%

CCCCCCCCS[C@@H]1O[C@H](CO)[C@@H](O)[C@H](O)[C@H]1O [OTG, octyl-β-D-thioglucoside]
CMC [5]: 0.28 wt %
